Measured values reported in patent US10697020B2, “MicroRNA-129 as a biomarker for colorectal cancer” (THE RESEARCH FOUNDATION FOR THE STATE UNIVERSITY OF NEW YORK, priority 2013, dated 2020).
pIC50: −log10 of the molar value. Read-outs that look alike come from different tables or passages of the source.

Columns and labels:
[1] = system: cleaved caspase-3 and cleaved caspase-9; test: Western immunoblot analysis of cleaved caspases in HCT116 cells; format: cell-based, human; conditions: HCT116 cells with ectopic expression of miR-129
Protocol: (§1) HCT116, RKO and SW480 cells were plated in 6-well plates at 2×10^5, 1×10^5 and 1×10^5 per well, respectively. Twenty-four hours after plating, 100 nM of miR-129 precursor (Ambion, Carlsbad, Calif., USA) or siRNA against BCL2 (Dharmacon, Lafayette, Colo., USA) were transfected to the cells with oligofectamine (Invitrogen, Carlsbad, Calif., USA) in accordance with the manufacturer's protocol. Negative miRNA (Ambion) was also transfected as a negative control.
(§2) Forty-eight hours after transfection, cells were lysed with RIPA buffer (Sigma-Aldrich), and Western immunoblotting was performed using standard procedures. The primary antibodies used for the analysis were mouse anti-human BCL2 antibody (1:200; Thermo Fisher Scientific, Fremont, Calif., USA), rabbit anti-human cleaved caspase-3 antibody (1:200; Cell Signaling Technology, Beverly, Mass., USA), rabbit anti-human cleaved caspase-9 antibody (1:200; Cell Signaling Technology), mouse anti-human E2F3 antibody (1:5000; Millipore, Billerica, Mass., USA), mouse anti-human TS antibody (1:400; Millipore), mouse anti-human GAPDH antibody (1:1000, Santa Cruz Biotechnology, Santa Cruz, Calif., USA) or mouse anti-human α-tubulin antibody (1:1000; Millipore). […] HRP activity was detected with SuperSignal West Pico Chemiluminescent Substrate (Thermo Fisher Scientific) and visualized in an UVP Bioimaging system.

[2] = system: HCT116 cells; test: Colorectal cancer xenografts (HCT116) in NOD/SCID mice, tumor volume; format: in vivo; conditions: day 24
Protocol: When solid and palpable tumors with an average volume of 100-150 mm^3 were formed (at day 14), mice were randomly separated into four groups such that each group was treated either with negative control miRNA, miR-129 alone, 5-FU alone or miR-129 and 5-FU together. The miRNAs were complexed with siPORTamine and injected intratumorally while 5-FU (50 μg g^−1) was injected systemically via the tail vein. All injections were provided in 3-day intervals for a total of three times before the tumors were collected at day 24. […] Importantly, despite the overexpression, the expression levels of miR-129 copy number remained within the physiological range (less than 20 copies/cell based on cycle threshold value at 30, which is equal to the expression of miR-129 in normal colon mucosa). Moreover, the control tumor xenografts had no miR-129 expression (cycle threshold value at 35).
Ten-twelve week old NOD/SCID mice (Jackson Laboratories, Bar Harbor, […]., USA) were used for tumor implantation. All animal procedures were approved by the Stony Brook University Institutional Animal Care and Use Committee (IACUC). The tumor implantation and miRNA injection protocol was modified from Trang et al. (see Trang P., et al., Oncogene. (2010) 29(11):1580-7). The mice were anesthetized by isoflurane inhalation. HCT116 cells were subcutaneously injected into the lower back areas of the mice using 2.5×10^6 cells in 100 μl McCoy's 5A with 50% matrigel (BD Biosciences). The tumor size was measured using a caliper and tumor volume was calculated using the formula V=length×width^2/2. When tumor volumes reach 100-150 mm^3 at day 14 post-injection, the mice were randomly assigned into four groups. For the first two groups, 10 μM negative miRNA or miR-129 precursor (Ambion) complexed with 1.6 μl siPORTAmine (Ambion) in 50 μl McCoy's 5A was injected into the tumors every three days. For the third group, 5-FU (Sigma-Aldrich) was injected at 50 μg/g via the tail vein every three days. Finally, for the last group, both miR-129 precursor and 5-FU were injected as described above. The mice were euthanized on day 24 post-injection by CO2 inhalation, and tumors were dissected out for RNA isolation.

[3] = system: BCL2; test: Western immunoblot analysis of BCL2 protein after miRNA/siRNA transfection; format: cell-based, human; conditions: HCT116, RKO and SW480 cells; 100 nM transfected; 48 h; vs negative control miRNA
Protocol: as §1, §2

[4] = system: HCT116 cells; test: 5-FU treatment and cytotoxicity assay (WST-1); format: cell-based; conditions: 72 hours, read-out: IC50 (50% growth inhibition, WST-1)
Protocol: Twenty-four hours after transfection, HCT116 cells were plated in 96-well plates at 2×10^3 cells per well in triplicates in 100 μl of medium. After 24 hours, fresh medium containing 5-FU alone (ranged from 1 to 4 μM) or miR-129 precursor alone (ranged from 10 nM to 40 nM) or 5-FU and miR-129 together (at a constant ratio 1:10, with increasing concentrations of both compounds) were added, and cells were cultured for an additional 72 hours. Cell viability was measured using the WST-1 assay, and concentration-dependent curves were generated based on the cell viability. The combination index was calculated by CompuSyn software. See, Chou T C et al. (2007).

[5] = system: HCT116, RKO and SW480 cells; test: Apoptosis assay (annexin V / propidium iodide, flow cytometry); format: cell-based, human; conditions: all colorectal cancer cell lines tested (HCT116, RKO, SW480); 48 h after transfection; vs negative miRNA
Protocol: as §1
Forty-eight hours after transfection, cells were harvested, stained with propidium iodide and anti annexin-V antibody (Annexin V-FITC Apoptosis Detection kit, BD Biosciences, San Jose, Calif., USA) following the manufacturer's protocol, and stained cells were detected by flow cytometry. The experiments for the apoptosis assay were performed at least three times.

[6] = system: RKO cells; test: Cell proliferation assay (WST-1), RKO; format: cell-based, human; conditions: day 5
Protocol: as §1
Twenty-four hours after transfection, cells were seeded in 96-well plates at a density of 2000 cells per well. The cell proliferation assay was performed on days 1, 3 and 5 by incubating 10 μl WST-1 (Roche Applied Science, Mannheim, Germany) in the culture medium for 1 h and reading the absorbance at 450 and 630 nm. The cell proliferation rate was calculated by […]. Experiments for the cell proliferation assay were performed at least three times.

Substance: miR-129: nucleic acid having a sequence of CUUUUUGCGGUCUGGGCUUGC (SEQ ID NO. 1); miR-129 precursor from Ambion used (chemistry not given here; listed as Homo sapiens)
- protein levels of cleaved caspase-9 and cleaved caspase-3 [1]: elevated the protein levels
- inhibition of tumor growth (in words) ([2]; HCT116 xenograft, compared with negative miRNA or single agents): sufficiently reduced tumor size
- average tumor volume, % of the control group ([2]; treated days 14, 17, 20, miRNA intratumoral with siPORTamine, 5-FU 50 μg/g tail vein, control negative miRNA): ~84.4%
- BCL2 protein expression [3]: reduced the BCL2 protein expression
- pIC50 ([4]; miR-129 alone): 7.95
- pIC50 ([4]; miR-129 when combined with 5-FU (fixed ratio 1:10)): 8.20
- apoptosis (proportion of cells annexin V positive and propidium iodide negative) [5]: increased apoptosis significantly
- cell proliferation reduced compared to negative controls [6]: 43.9%
